In one data set the target is T1, BAX (Homo sapiens, UniProt Q07812).
T1 construct: Recombinant, full-length BAX was expressed in BL21 (DE3) E. coli using the pTYB1 vector; made in house; host or cells: E. coli BL21 (DE3)
The experiment in a line: Liposomal release assay (ANTS/DPX). It counts as biochemical.

Data set [1] concerns the target T2, recombinant, full length BAX (Homo sapiens, UniProt Q07812).
T2 construct: made in house; host or cells: E. coli BL21 (DE3)
The experiment in a line: Fluorescence polarization assay (direct and competitive). It counts as binding. As to conditions: FITC-peptide 25 nM, BAX 250 nM. As to the method: FITC-peptide (25 nM) was incubated with a serial dilution of recombinant, full length BAX in binding buffer (20 mM Potassium phosphate, pH 6.2). For competitive FP, FITC-peptide (25 nM) was mixed with a fixed concentration of BAX (250 nM) and incubated with a serial dilution of acetylated peptide or a compound described herein. Fluorescence polarization was measured at equilibrium using a SpectraMax M5 microplate reader. Nonlinear regression analysis of dose-response curves was performed using Prism software 7 (GraphPad).
A general note: Polarisation of emitted light reports the rotation of a fluorescent probe.

The nature of data set [2]: NMR-based detection of small molecule aggregators. Format: physicochemical. As to conditions: 20 mM potassium phosphate buffer, pH 6.2, 10% D2O. As for the experimental part: To detect line broadening, standard ^1H-NMR spectra were acquired. T2 decay curves were generated by measuring the CPMG NMR spectra of the molecules, performed as described above. The number of echo cycles corresponds to the decay time. The intensity of the aromatic peaks at the indicated decay times were measured and normalized to a maximum intensity of 1 at the 10 ms decay time. The curves were fitted to a one phase decay model using Prism software (Graphpad). Excitation sculpting was used for solvent suppression. Samples for both analyses were prepared in 20 mM potassium phosphate buffer, pH 6.2, 10% (v/v) D2O. Results of these measurements are described in FIGS. 12-13.

Another data set can be described thus: Dynamic light scattering. It counts as physicochemical. As to conditions: 20 mM potassium phosphate buffer, pH 6.2. As for the experimental part:
Samples were measured at room temperature on a DynaPro-99 instrument with a 90° detector angle using a 10 second acquisition time per measurement. Compounds were diluted from a 100 mM stock in 20 mM potassium phosphate buffer, pH 6.2 with 1% DMSO final concentration.

T1 sequence (Q07812 whole entry): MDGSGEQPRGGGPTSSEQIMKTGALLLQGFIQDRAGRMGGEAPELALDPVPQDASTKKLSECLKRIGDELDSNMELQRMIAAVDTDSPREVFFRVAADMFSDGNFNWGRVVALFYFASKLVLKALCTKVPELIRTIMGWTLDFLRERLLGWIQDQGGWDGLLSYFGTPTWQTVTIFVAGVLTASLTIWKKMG
T2 sequence (Q07812 whole entry): as above

Regarding “BIM SAHBA2: stapled BIM BH3 helix (aa 145-164), Ac-EIWIAQELRXIGDXFNAYYA-CONH2, X=stapling amino acid; direct BAX activator positive control”, the “maximal BAX-mediated liposomal release” value with BAX (BIM SAHBA2 alone with BAX) is listed as 50%. In the data set with BAX (single agent with BAX), the “direct BAX activation in liposomal release” value is reported as “induced time-responsive liposomal release”. Besides, in data set [1], the “competition with FITC-BIM SAHBA2 for BAX interaction” value is listed as “dose-responsively competed”.

In the case of `Nc1ccc(Nc2ccccc2)cc1` [4-ADPA], the “T2 decay (aggregation)” value in data set [2] was “rapid T2 decay”. The “light scattering (aggregation in solution)” value (“light scattering” below) in “Dynamic light scattering” was “dose-dependent increase in light scattering”.

With `O=C1C(I)=CC(=C(c2cc(I)c(O)c(I)c2)c2ccccc2C(=O)O)C=C1I` [I4PTH], the “light scattering” value in “Dynamic light scattering” was “dose-dependent increase in light scattering”.

As to `Oc1ccc(Oc2ccccc2)cc1` [BIF-44], in data set [2], the “T2 decay (aggregation)” value is reported as “does not exhibit rapid or dose dependent decrease in T2 decay” and the “line broadening in 1H-NMR spectrum (aggregation)” value is recorded as “does not exhibit line broadening”. Moreover, in “Dynamic light scattering”, the “light scattering” value is recorded as “does not aggregate in solution”.

(Values after US20200172530A1, “Small Molecule Sensitization of BAX Activation for Induction of Cell Death” (Dana-Farber Cancer Institute, Inc., priority 2017, published 2020).)
